This experiment has as its system hemoglobin. The experiment can be described thus: Residual percentage of hemoglobin in buffer solution with additive after storage at 37° C., hemoglobin concentration by latex agglutination immunoassay (OC sensor DIANA). The settings on record: for Residual percentage After 6 hours of storage / Residual percentage After 24 hours of storage: 37° C.; for effect of stabilizing hemoglobin (result in words): storage at 37° C., 6 and 24 hours, versus control sample; for residual percentages of hemoglobin after 6 hours of storage and after 24 hours of storage (result in words): stored at a high temperature of 37° C. On the set-up: species or system human. How it is done: A solution (pH7.0) containing 0.3 w/v % bovine serum albumin, NaOH, 0.05 mol/L phosphate buffer solution as a buffer solution, and pure water as the remainder was prepared. 1,2-EDS as an additive was added, to the solution in such an amount as to give each concentration (0.01 to 0.2 mol/L) listed in Table 1, thereby preparing a solution at each concentration. Hemolytic hemoglobin was added to 10 mL of the prepared solutions in such an amount as to give a 600 ng/mL sample.
Immediately after addition of hemoglobin, the hemoglobin concentration (concentration immediately after addition) of each sample was measured. Subsequently, each sample was stored at 37° C. With the time of adding hemoglobin designated as 0 hour of storage, hemoglobin concentration of each sample was measured after 6 hours of storage and after 24 hours of storage (concentration after 6 hours of storage and concentration after 24 hours of storage).
Hemoglobin concentration was measured using an OC sensor DIANA analyzer (Eiken Chemical Co., Ltd) and a dedicated reagent (OC-Hemodia Auto III: Eiken Chemical Co., Ltd) based on the measurement principle, a latex agglutination reaction; that is, a type of immunoassay method. Specifically, 35 μL of the sample was collected and used as a test solution, and then 60 μL of latex (latex solution sensitized with 20 vol % anti-human hemoglobin rabbit polyclonal antibody) and 300 μL of diluent (11.92 mg/mL HEPES) were added to the test solution, followed by measurement of absorbance at a wavelength of 660 nm. Based on a previously produced calibration curve, hemoglobin concentration in the test solution was determined from the thus obtained measurement value. Measurement was performed in triplicate for each sample, the mean value of the measurement results was employed as the hemoglobin concentration of each sample.
From the thus measured hemoglobin concentrations, the residual percentages of hemoglobin were found based on the following formula.
Residual percentage [%] of hemoglobin after 6 hours of storage or after 24 hours of storage=100×hemoglobin concentration [ng/mL] after 6 hours of storage or after 24 hours of storage/concentration [ng/mL] immediately after addition in control sample.
Specifically, the residual percentage of hemoglobin of each sample is a relative value with the hemoglobin concentration (immediately after addition) in a control sample designated as 100%. The control sample in this example was a phosphate buffer solution (containing no 1,2-EDS) containing bovine serum albumin and NaOH, and the concentration immediately after addition in the control sample was 583 ng/mL.
Samples were prepared in a manner similar to Example 1 except that 0.05 mol/L N-(2-hydroxyethyl)piperazine-N′-ethanesulfonic acid (hereinafter, referred to as HEPES) was used instead of a phosphate buffer solution and that 1,2-EDS was added in such an amount as to give each concentration (0.005 to 0.2 mol/L) listed in Table 2, and then hemoglobin concentrations were measured. In addition, the residual percentage of each sample was represented by a relative value with the concentration immediately after addition (576 ng/mL) in a control sample (HEPES buffer solution (containing no 1,2-EDS) containing bovine serum albumin and NaOH) designated as 100%.
Samples were prepared in a manner similar to Example 1 except that 0.05 mol/L HEPES, 0.05 mol/L piperazine-N,N′-bis(2-ethanesulfonic acid) (hereinafter, referred to as PIPES) or 0.05 mol/L 2-morpholinoethanesulfonic acid (hereinafter, referred to as MES) was used instead of a phosphate buffer solution, and that 1,2-EDS was added in such an amount as to give each concentration listed in Table 3, and then hemoglobin concentrations were measured. […]

The mark [1] stands for this setting: phosphate buffer pH7.0, additive 10 mM, relative to control immediately after addition (583 ng/mL).
Setting [2] is: HEPES buffer, additive 150 mM, relative to phosphate control (548 ng/mL).
[3] abbreviates: phosphate buffer, additive 50 mM, relative to phosphate control (548 ng/mL).
Setting [4] is: phosphate buffer, additive 150 mM, relative to phosphate control (548 ng/mL).
Where [5] appears, read: HEPES buffer, additive 5 mM, relative to HEPES control (576 ng/mL).
[6] abbreviates: HEPES buffer, additive 10 mM, relative to HEPES control (576 ng/mL).
The mark [7] stands for this setting: HEPES buffer, additive 20 mM, relative to HEPES control (576 ng/mL).
[8] abbreviates: HEPES buffer, additive 20 mM, relative to phosphate control (583 ng/mL).
[9] abbreviates: HEPES buffer, additive 40 mM, relative to HEPES control (576 ng/mL).
Setting [10] is: HEPES buffer, additive 60 mM, relative to HEPES control (576 ng/mL).
The mark [11] stands for this setting: HEPES buffer, additive 100 mM, relative to HEPES control (576 ng/mL).
The mark [12] stands for this setting: HEPES buffer, additive 150 mM, relative to HEPES control (576 ng/mL).
Where [13] appears, read: HEPES buffer, additive 200 mM, relative to HEPES control (576 ng/mL).
Setting [14] is: MES buffer, additive 20 mM, relative to phosphate control (583 ng/mL).
[15] abbreviates: PIPES buffer, additive 20 mM, relative to phosphate control (583 ng/mL).
[16] abbreviates: phosphate buffer, additive 20 mM, relative to control (583 ng/mL).
[17] abbreviates: phosphate buffer, additive 40 mM, relative to control (583 ng/mL).
[18] abbreviates: phosphate buffer, additive 60 mM, relative to control (583 ng/mL).
[19] abbreviates: phosphate buffer, additive 100 mM, relative to control (583 ng/mL).
Setting [20] is: phosphate buffer, additive 150 mM, relative to control (583 ng/mL).
Where [21] appears, read: phosphate buffer, additive 200 mM, relative to control (583 ng/mL).

Results on six compounds are retold here after US11125659B2, “Preservative solution for heme protein, and method for stabilizing heme protein” (EIKEN KAGAKU KABUSHIKI KAISHA, priority 2015, dated 2021).

The structures appear in SMILES notation.

As to `O=S(=O)([O-])CCS.[Na+]` [MESS, sodium 2-mercaptoethanesulfonate, reference compound], under setting [1], the “Residual percentage After 6 hours of storage” value is 33.4% and the “Residual percentage After 24 hours of storage” value amounted to 3.3%.
On to `O=S(=O)(O)CCCCS(=O)(=O)O` [1,4-BDS, 1,4-butanedisulfonic acid], for which the “effect of stabilizing hemoglobin (result in words)” value (“effect” for short) is recorded as “effect of stabilizing hemoglobin”; the “residual percentages of hemoglobin after 6 hours of storage and after 24 hours of storage (result in words)” value (from here on “residual percentages of hemoglobin”) was “high levels”. Further, under setting [2], the “Residual percentage After 6 hours of storage” value was 74.7% and the “Residual percentage After 24 hours of storage” value turned out to be 28.4%. Further, under setting [3], the “Residual percentage After 6 hours of storage” value was 68.3% and the “Residual percentage After 24 hours of storage” value amounted to 14.5%. In addition, under setting [4], the “Residual percentage After 6 hours of storage” value is listed as 69.9% and the “Residual percentage After 24 hours of storage” value came out at 18.4%.
On to `O=S(=O)(O)CCN1CCN(CCS(=O)(=O)O)CC1` [PIPES, piperazine-N,N′-bis(2-ethanesulfonic acid)], for which the “effect” value is given as “effect of stabilizing hemoglobin”. Under setting [3], the “Residual percentage After 6 hours of storage” value was determined as 58.4% and the “Residual percentage After 24 hours of storage” value is on record as 10.4%.
Regarding `O=S(=O)(O)c1cccc2cccc(Nc3ccccc3)c12` [ANS, 8-anilino-1-naphthalenesulfonate, reference compound], under setting [1], the “Residual percentage After 6 hours of storage” value is recorded as 2.6% and the “Residual percentage After 24 hours of storage” value is given as 2.5%.
`O=S(=O)(O)c1ccc2cc(S(=O)(=O)O)ccc2c1` [2,6-NDS, 2,6-naphthalenedisulfonic acid]: the “effect” value is recorded as “effect of stabilizing hemoglobin”; the “residual percentages of hemoglobin” value is “high levels”. Moreover, under setting [3], the “Residual percentage After 6 hours of storage” value came out at 55.7% and the “Residual percentage After 24 hours of storage” value is listed as 11.1%.
As for `O=S(=O)(O)CCS(=O)(=O)O` [1,2-EDS, 1,2-ethanedisulfonic acid], the “effect” value is given as “effect of stabilizing hemoglobin”; the “residual percentages of hemoglobin” value was “high levels”. Further, under setting [5], the “Residual percentage After 6 hours of storage” value worked out at 64.3% and the “Residual percentage After 24 hours of storage” value turned out to be 14.0%. Besides, under setting [6], the “Residual percentage After 6 hours of storage” value was 65.2% and the “Residual percentage After 24 hours of storage” value is 16.6%. In addition, under setting [7], the “Residual percentage After 6 hours of storage” value is on record as 67.1% and the “Residual percentage After 24 hours of storage” value was found to be 18.1%. Under setting [8], the “Residual percentage After 6 hours of storage” value is reported as 67.6% and the “Residual percentage After 24 hours of storage” value is on record as 20.2%. In addition, under setting [9], the “Residual percentage After 6 hours of storage” value came out at 68.5% and the “Residual percentage After 24 hours of storage” value is listed as 19.7%. In addition, under setting [10], the “Residual percentage After 6 hours of storage” value was found to be 71.3% and the “Residual percentage After 24 hours of storage” value stood at 20.8%. Besides, under setting [11], the “Residual percentage After 6 hours of storage” value is 72.4% and the “Residual percentage After 24 hours of storage” value came out at 21.6%. Further, under setting [12], the “Residual percentage After 6 hours of storage” value was found to be 72.8% and the “Residual percentage After 24 hours of storage” value is 20.4%. For the same compound, under setting [13], the “Residual percentage After 6 hours of storage” value is 73.1% and the “Residual percentage After 24 hours of storage” value amounted to 21.8%. Under setting [14], the “Residual percentage After 6 hours of storage” value worked out at 65.9% and the “Residual percentage After 24 hours of storage” value worked out at 18.7%. Moreover, under setting [15], the “Residual percentage After 6 hours of storage” value turned out to be 63.6% and the “Residual percentage After 24 hours of storage” value worked out at 14.3%. For the same compound, under setting [1], the “Residual percentage After 6 hours of storage” value was 52.5% and the “Residual percentage After 24 hours of storage” value turned out to be 7.5%. Further, under setting [16], the “Residual percentage After 6 hours of storage” value is listed as 56.3% and the “Residual percentage After 24 hours of storage” value worked out at 9.0%. Under setting [17], the “Residual percentage After 6 hours of storage” value stood at 61.9% and the “Residual percentage After 24 hours of storage” value was 12.8%. Besides, under setting [18], the “Residual percentage After 6 hours of storage” value stood at 59.7% and the “Residual percentage After 24 hours of storage” value was 12.3%. Also, under setting [19], the “Residual percentage After 6 hours of storage” value turned out to be 65.4% and the “Residual percentage After 24 hours of storage” value turned out to be 16.6%. In addition, under setting [20], the “Residual percentage After 6 hours of storage” value is 71.5% and the “Residual percentage After 24 hours of storage” value is on record as 24.3%. Under setting [21], the “Residual percentage After 6 hours of storage” value is on record as 46.2% and the “Residual percentage After 24 hours of storage” value is 7.9%.
